Here are results for 1 compound from patent publication US12629394B2, “Atlas of Choroid Plexus cell types and therapeutic and diagnostic uses thereof” (The Broad Institute, Inc., priority 2019, dated 2026).

The test system of data set [1] is CSF-SOD, CSF antioxidant capacity. The experiment in a line: Patient CSF after MTX: SOD expression and antioxidant capacity. It counts as in vivo, human. Here is the method:
(§1) AAV2/5-SOD3 or control AAV2/5-GFP was injected into embryonic (E) 13.5 mouse lateral ventricles, and offspring were raised to 4-6 weeks of age. Applicants quantified choroid plexus-SOD3 expression (qRT-PCR), CSF-SOD protein levels (immunoblotting), and CSF-anti-oxidant capacity (ELISA). In parallel, Applicants tested if Methotrexate (MTX) exposure induced signatures of oxidative damage in cultured human cortical neurons (iPSCs), in patient CSF, and in vivo rodent brain. To test if supplemental choroid plexus-SOD3 protects the brain from acute oxidative stress, intravenous MTX was administered to mice previously transduced with AAV2/5-SOD3 or control AAV2/5-GFP, and analyzed cortex, hippocampus, and corpus callosum for markers of oxidative damage 48 hours later.
(§2) Optimized assays for evaluating redox homeostasis and oxidative damage to cells, lipids, and DNA and found chemotherapy (MTX)-induced oxidative damage in human neurons in vitro and in rodent brain in vivo, and rodent ChP in vitro and in vivo was performed (FIG. 4; data not shown).

For data set [2] the test system is unchanged. Particulars: despite thiol supplementation (e.g. Leucovorin); cited from earlier work.
The test system of data set [3] is human iPSC cortical neurons. Briefly: MTX exposure of cultured human cortical neurons (iPSCs): oxidative stress and damage. It counts as cell-based. Here is the method:
as §1, §2

The test system of data set [4] is choroid plexus, CSF, brain. Briefly: Intravenous MTX in mice: ChP and CSF antioxidants, oxidative damage. It counts as in vivo, mouse. Here is the method:
as §1

In data set [5] the test system is choroid plexus, CSF. Briefly: Intravenous MTX in rats: ChP and CSF antioxidants. It counts as in vivo, rat.
For data set [6], the system named is choroid plexus in vitro. Briefly: In vitro incubation of choroid plexus with MTX: ROS, mitochondria, SOD. In kind it is cell-based, rodent. Here is the method: as §2
[7] abbreviates: mouse, MTX 4 mg/kg i.v., evaluation at 48 hours.

Each structure is given as a SMILES string. Entries after “also recorded” stand apart in the source; their conditions may differ.

Turning to `CN(Cc1cnc2nc(N)nc(N)c2n1)c1ccc(C(=O)N[C@@H](CCC(=O)O)C(=O)O)cc1` [MTX, Methotrexate], the “CSF-SOD expression levels after vs. before treatment” value in data set [1] (Primary CNS lymphoma patient, high dose MTX, sample 1B vs. pre-treatment 1A) was “reduced CSF-SOD expression levels”. For the same compound, in data set [1] (human CSF), the “antioxidant capacity of human CSF” value was “diminishes antioxidant capacity”. The “markers of oxidative damage in patient CSF” value in data set [1] (patient CSF) is “induced markers of oxidative damage”. The “anti-oxidant capacity of CSF from patients receiving chemotherapeutics” value in data set [2] was “reduced anti-oxidant capacity”. For the same compound, the “oxidative stress in human iPSC cortical neurons” value in data set [3] (MTX 10 uM) is listed as “triggers oxidative stress”. Moreover, the “oxidative stress / markers of oxidative damage in cultured human neurons” value in data set [3] (human iPSC-derived neurons) is “induces oxidative stress; also recorded: induced markers of oxidative damage”. Besides, in data set [4] (in vivo rodent brain), the “markers of oxidative damage in rodent brain” value is “induced markers of oxidative damage”. For the same compound, in data set [4] (mice, intravenous MTX), the “antioxidant availability in CSF” value is reported as “reduced antioxidant availability in CSF” and the “choroid plexus anti-oxidant gene transcription” value is listed as “decreased choroid plexus anti-oxidant gene transcription”. In data set [4] (setting [7]), the “SOD expression in vivo (CSF Sod3, SOD activity)” value is listed as “decreases SOD expression” and the “oxidative damage in vivo (8-OHdG)” value is “increases oxidative damage”. Further, in data set [5], the “antioxidant availability in CSF” value was “reduced antioxidant availability in CSF” and the “choroid plexus anti-oxidant gene transcription” value is “decreased choroid plexus anti-oxidant gene transcription”. In addition, in data set [6] (in vitro), the “SOD expression and secretion” value is “decreases SOD expression and secretion”; the “mitochondrial respiration in choroid plexus” value is “impairs mitochondrial respiration”. In data set [6] (in vitro incubation), the “ROS production in ChP” value was “inducing ROS production” and the “mitochondrial membrane potential in ChP” value was “alters mitochondrial membrane potential”.
